Results: paper PMC4984525 (Cancer, 2011)

Assay: Plasma pharmacokinetics of ARRY-520
Format: in vivo, human
Details: human, plasma, intravenous

CON(C)C(=O)N1N=C(c2cc(F)ccc2F)S[C@@]1(CCCN)c1ccccc1 [ARRY-520]
Tmax (1.8 mg/m^2, Tmax, Schedule 2, Cycle 1 Day 1, 1.8 mg/m^2 (N=2), median (min-max)): 1 h
Tmax (1.8 mg/m^2, Tmax, Schedule 2, Cycle 1 Day 5, 1.8 mg/m^2 (N=2), median (min-max)): 1 h
Vd (1.8 mg/m^2, Vss, Schedule 2, Cycle 1 Day 1, 1.8 mg/m^2 (N=2), mean): 306 L
Vd (1.8 mg/m^2, Vss, Schedule 2, Cycle 1 Day 5, 1.8 mg/m^2 (N=2), mean): 127 L
half-life (1.8 mg/m^2, t1/2, Schedule 2, Cycle 1 Day 1, 1.8 mg/m^2 (N=2), median (min-max)): 27.1 h
half-life (1.8 mg/m^2, t1/2, Schedule 2, Cycle 1 Day 5, 1.8 mg/m^2 (N=2), median (min-max)): 80 h
AUC(0-inf) (2.5 mg/m^2): 1650 ng·h/mL
clearance (2.5 mg/m^2, CL, Schedule 1, Cycle 1 Day 1, 2.5 mg/m^2 (N=3), geometric mean (geometric %CV)): 44.8 mL/min
Cmax (2.5 mg/m^2, Cmax, Schedule 1, Cycle 1 Day 1, 2.5 mg/m^2 (N=3), geometric mean (geometric %CV)): 132 ng/mL
MRT (2.5 mg/m^2, MRT, Schedule 1, Cycle 1 Day 1, 2.5 mg/m^2 (N=3), median (min-max)): 92.7 h
Tmax (2.5 mg/m^2, Tmax, Schedule 1, Cycle 1 Day 1, 2.5 mg/m^2 (N=3), median (min-max)): 2 h
Vd (2.5 mg/m^2, Vss, Schedule 1, Cycle 1 Day 1, 2.5 mg/m^2 (N=3), mean (%CV)): 405 L
half-life (2.5 mg/m^2, t1/2, Schedule 1, Cycle 1 Day 1, 2.5 mg/m^2 (N=3), median (min-max)): 97.2 h
AUC(0-t) (3.6 mg/m^2, AUC0–24, Schedule 2, Cycle 1 Day 1, 3.6 mg/m^2 (N=1), geometric mean): 345 ng·h/mL
AUC(0-t) (3.6 mg/m^2, AUC0–24, Schedule 2, Cycle 1 Day 5, 3.6 mg/m^2 (N=1), geometric mean): 733 ng·h/mL
clearance (3.6 mg/m^2, CL, Schedule 2, Cycle 1 Day 1, 3.6 mg/m^2 (N=1), geometric mean): 187 mL/min
clearance (3.6 mg/m^2, CL, Schedule 2, Cycle 1 Day 5, 3.6 mg/m^2 (N=1), geometric mean): 22.2 mL/min
Cmax (3.6 mg/m^2, Cmax, Schedule 2, Cycle 1 Day 1, 3.6 mg/m^2 (N=1), geometric mean): 73.9 ng/mL
Cmax (3.6 mg/m^2, Cmax, Schedule 2, Cycle 1 Day 5, 3.6 mg/m^2 (N=1), geometric mean): 199 ng/mL
MRT (3.6 mg/m^2, MRT, Schedule 2, Cycle 1 Day 5, 3.6 mg/m^2 (N=1), median (min-max)): 152 h
Tmax (3.6 mg/m^2, Tmax, Schedule 2, Cycle 1 Day 1, 3.6 mg/m^2 (N=1), median (min-max)): 1 h
Tmax (3.6 mg/m^2, Tmax, Schedule 2, Cycle 1 Day 5, 3.6 mg/m^2 (N=1), median (min-max)): 1.08 h
Vd (3.6 mg/m^2, Vss, Schedule 2, Cycle 1 Day 1, 3.6 mg/m^2 (N=1), mean): 278 L
Vd (3.6 mg/m^2, Vss, Schedule 2, Cycle 1 Day 5, 3.6 mg/m^2 (N=1), mean): 202 L
half-life (3.6 mg/m^2, t1/2, Schedule 2, Cycle 1 Day 1, 3.6 mg/m^2 (N=1), median (min-max)): 18.7 h
half-life (3.6 mg/m^2, t1/2, Schedule 2, Cycle 1 Day 5, 3.6 mg/m^2 (N=1), median (min-max)): 108 h
AUC(0-inf) (3.75 mg/m^2): 1480 ng·h/mL
clearance (3.75 mg/m^2, CL, Schedule 1, Cycle 1 Day 1, 3.75 mg/m^2 (N=1), geometric mean): 113 mL/min
Cmax (3.75 mg/m^2, Cmax, Schedule 1, Cycle 1 Day 1, 3.75 mg/m^2 (N=1), geometric mean): 31.1 ng/mL
MRT (3.75 mg/m^2, MRT, Schedule 1, Cycle 1 Day 1, 3.75 mg/m^2 (N=1), median (min-max)): 127 h
Tmax (3.75 mg/m^2, Tmax, Schedule 1, Cycle 1 Day 1, 3.75 mg/m^2 (N=1), median (min-max)): 1 h
Vd (3.75 mg/m^2, Vss, Schedule 1, Cycle 1 Day 1, 3.75 mg/m^2 (N=1), mean): 857 L
half-life (3.75 mg/m^2, t1/2, Schedule 1, Cycle 1 Day 1, 3.75 mg/m^2 (N=1), median (min-max)): 100 h
AUC(0-inf) (4.5 mg/m^2): 3000 ng·h/mL
clearance (4.5 mg/m^2, CL, Schedule 1, Cycle 1 Day 1, 4.5 mg/m^2 (N=4), geometric mean (geometric %CV)): 49.2 mL/min
Cmax (4.5 mg/m^2, Cmax, Schedule 1, Cycle 1 Day 1, 4.5 mg/m^2 (N=4), geometric mean (geometric %CV)): 53.4 ng/mL
MRT (4.5 mg/m^2, MRT, Schedule 1, Cycle 1 Day 1, 4.5 mg/m^2 (N=4), median (min-max)): 142 h
Tmax (4.5 mg/m^2, Tmax, Schedule 1, Cycle 1 Day 1, 4.5 mg/m^2 (N=4), median (min-max)): 1.01 h
Vd (4.5 mg/m^2, Vss, Schedule 1, Cycle 1 Day 1, 4.5 mg/m^2 (N=4), mean (%CV)): 340 L
half-life (4.5 mg/m^2, t1/2, Schedule 1, Cycle 1 Day 1, 4.5 mg/m^2 (N=4), median (min-max)): 100 h
AUC(0-inf) (5.6 mg/m^2): 2520 ng·h/mL
clearance (5.6 mg/m^2, CL, Schedule 1, Cycle 1 Day 1, 5.6 mg/m^2 (N=2), geometric mean): 71.7 mL/min
Cmax (5.6 mg/m^2, Cmax, Schedule 1, Cycle 1 Day 1, 5.6 mg/m^2 (N=2), geometric mean): 49.6 ng/mL
MRT (5.6 mg/m^2, MRT, Schedule 1, Cycle 1 Day 1, 5.6 mg/m^2 (N=2), median (min-max)): 131 h
Tmax (5.6 mg/m^2, Tmax, Schedule 1, Cycle 1 Day 1, 5.6 mg/m^2 (N=2), median (min-max)): 0.959 h
Vd (5.6 mg/m^2, Vss, Schedule 1, Cycle 1 Day 1, 5.6 mg/m^2 (N=2), mean): 515 L
half-life (5.6 mg/m^2, t1/2, Schedule 1, Cycle 1 Day 1, 5.6 mg/m^2 (N=2), median (min-max)): 92.5 h
clearance (CL, Schedule 1, Cycle 1 Day 1, Schedule Total (N=10), geometric mean (geometric %CV)): 56 mL/min
clearance (CL, Schedule 2, Cycle 1 Day 1, Schedule Total (N=18), geometric mean (geometric %CV)): 119 mL/min
clearance (CL, Schedule 2, Cycle 1 Day 5, Schedule Total (N=18), geometric mean (geometric %CV)): 19.8 mL/min
clearance (CL, range across cohorts, Schedule 1, Cycle 1): 44.8 to 113 mL/min
MRT (MRT, Schedule 1, Cycle 1 Day 1, Schedule Total (N=10), median (min-max)): 127 h
Tmax (Tmax, Schedule 1, Cycle 1 Day 1, Schedule Total (N=10), median (min-max)): 1 h
Tmax (Tmax, Schedule 2, Cycle 1 Day 1, Schedule Total (N=18), median (min-max)): 1 h
Tmax (Tmax, Schedule 2, Cycle 1 Day 5, Schedule Total (N=18), median (min-max)): 1 h
Vd (Vss, Schedule 1, Cycle 1 Day 1, Schedule Total (N=10), mean (%CV)): 446 L
Vd (Vss, Schedule 2, Cycle 1 Day 1, Schedule Total (N=18), mean (%CV)): 306 L
Vd (Vss, Schedule 2, Cycle 1 Day 5, Schedule Total (N=18), mean (%CV)): 191 L
clearance (clearance, plasma PK, abstract summary): ~50 mL/min
clearance (geometric mean CL, Schedule 1, Cycle 2, all patients, N=4): 50.3 mL/min
MRT (median MRT, Schedule 1): 127 h
half-life (median terminal t1/2, plasma PK, summary): > 90 h
half-life (t1/2, Schedule 1, Cycle 1 Day 1, Schedule Total (N=10), median (min-max)): 98.6 h
half-life (t1/2, Schedule 2, Cycle 1 Day 1, Schedule Total (N=18), median (min-max)): 26.1 h
